Test results as given in ChEMBL document CHEMBL1139297, “Synthesis and stereochemical effects of pyrrolidinyl-acetylenic thieno[3,2-d]pyrimidines as EGFR and ErbB-2 inhibitors” (Bioorg Med Chem Lett, 2009).

Key:
BT-474 = test: Antiproliferative activity against human BT474 cells overexpressing ERBb2 after 3 days by methylene blue staining; format: functional, cell-based; settings: BT-474, 72 h
[1] = target: T1, Epidermal growth factor receptor (Homo sapiens, UniProt P00533); test: Inhibition of EGFR by scintillation proximity assay
HFF = test: Antiproliferative activity against human HFF cells after 3 days by methylene blue staining; settings: 72 h
HN5 = test: Antiproliferative activity against human HN5 cells overexpressing EGFR after 3 days by methylene blue staining; settings: HN5, 72 h
[2] = target: T2, Receptor tyrosine-protein kinase erbB-2 (Homo sapiens, UniProt P04626); test: Inhibition of ERBb2 by scintillation proximity assay
[3] = target: T2, Receptor tyrosine-protein kinase erbB-2; test: Inhibition of ERBb2 by HTRF assay
[4] = target: T1, Epidermal growth factor receptor; test: Inhibition of EGFR by HTRF assay

T1 sequence (P00533 whole entry): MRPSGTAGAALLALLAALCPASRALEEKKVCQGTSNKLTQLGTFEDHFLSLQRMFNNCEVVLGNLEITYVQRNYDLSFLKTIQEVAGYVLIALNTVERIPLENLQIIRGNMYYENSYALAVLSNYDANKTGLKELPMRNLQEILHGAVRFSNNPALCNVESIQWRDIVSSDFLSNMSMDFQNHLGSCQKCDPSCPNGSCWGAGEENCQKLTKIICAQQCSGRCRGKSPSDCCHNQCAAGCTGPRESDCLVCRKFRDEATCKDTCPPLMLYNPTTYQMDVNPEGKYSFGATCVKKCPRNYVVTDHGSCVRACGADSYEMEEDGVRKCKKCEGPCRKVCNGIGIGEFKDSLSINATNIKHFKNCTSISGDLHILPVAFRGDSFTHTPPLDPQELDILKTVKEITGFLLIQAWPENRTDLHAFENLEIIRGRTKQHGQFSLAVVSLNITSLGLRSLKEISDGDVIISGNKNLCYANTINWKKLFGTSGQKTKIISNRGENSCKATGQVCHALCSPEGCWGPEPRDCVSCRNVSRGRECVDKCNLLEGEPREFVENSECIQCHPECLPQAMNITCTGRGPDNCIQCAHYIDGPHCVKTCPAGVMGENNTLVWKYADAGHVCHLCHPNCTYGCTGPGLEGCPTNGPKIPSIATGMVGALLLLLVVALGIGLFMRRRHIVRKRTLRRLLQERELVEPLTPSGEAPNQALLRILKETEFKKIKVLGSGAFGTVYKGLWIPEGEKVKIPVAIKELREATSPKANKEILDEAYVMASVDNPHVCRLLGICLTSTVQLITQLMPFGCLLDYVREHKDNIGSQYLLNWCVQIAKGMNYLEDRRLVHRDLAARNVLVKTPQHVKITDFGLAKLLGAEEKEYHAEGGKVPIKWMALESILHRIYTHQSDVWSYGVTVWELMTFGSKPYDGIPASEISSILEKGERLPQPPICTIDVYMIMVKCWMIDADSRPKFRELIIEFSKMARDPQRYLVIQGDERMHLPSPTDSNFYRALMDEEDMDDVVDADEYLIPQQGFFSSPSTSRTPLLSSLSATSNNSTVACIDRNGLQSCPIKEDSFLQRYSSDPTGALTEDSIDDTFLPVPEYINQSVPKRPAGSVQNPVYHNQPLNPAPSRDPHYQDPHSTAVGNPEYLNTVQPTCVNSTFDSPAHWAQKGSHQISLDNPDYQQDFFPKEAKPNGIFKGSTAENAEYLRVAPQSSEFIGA
T2 sequence (P04626 whole entry): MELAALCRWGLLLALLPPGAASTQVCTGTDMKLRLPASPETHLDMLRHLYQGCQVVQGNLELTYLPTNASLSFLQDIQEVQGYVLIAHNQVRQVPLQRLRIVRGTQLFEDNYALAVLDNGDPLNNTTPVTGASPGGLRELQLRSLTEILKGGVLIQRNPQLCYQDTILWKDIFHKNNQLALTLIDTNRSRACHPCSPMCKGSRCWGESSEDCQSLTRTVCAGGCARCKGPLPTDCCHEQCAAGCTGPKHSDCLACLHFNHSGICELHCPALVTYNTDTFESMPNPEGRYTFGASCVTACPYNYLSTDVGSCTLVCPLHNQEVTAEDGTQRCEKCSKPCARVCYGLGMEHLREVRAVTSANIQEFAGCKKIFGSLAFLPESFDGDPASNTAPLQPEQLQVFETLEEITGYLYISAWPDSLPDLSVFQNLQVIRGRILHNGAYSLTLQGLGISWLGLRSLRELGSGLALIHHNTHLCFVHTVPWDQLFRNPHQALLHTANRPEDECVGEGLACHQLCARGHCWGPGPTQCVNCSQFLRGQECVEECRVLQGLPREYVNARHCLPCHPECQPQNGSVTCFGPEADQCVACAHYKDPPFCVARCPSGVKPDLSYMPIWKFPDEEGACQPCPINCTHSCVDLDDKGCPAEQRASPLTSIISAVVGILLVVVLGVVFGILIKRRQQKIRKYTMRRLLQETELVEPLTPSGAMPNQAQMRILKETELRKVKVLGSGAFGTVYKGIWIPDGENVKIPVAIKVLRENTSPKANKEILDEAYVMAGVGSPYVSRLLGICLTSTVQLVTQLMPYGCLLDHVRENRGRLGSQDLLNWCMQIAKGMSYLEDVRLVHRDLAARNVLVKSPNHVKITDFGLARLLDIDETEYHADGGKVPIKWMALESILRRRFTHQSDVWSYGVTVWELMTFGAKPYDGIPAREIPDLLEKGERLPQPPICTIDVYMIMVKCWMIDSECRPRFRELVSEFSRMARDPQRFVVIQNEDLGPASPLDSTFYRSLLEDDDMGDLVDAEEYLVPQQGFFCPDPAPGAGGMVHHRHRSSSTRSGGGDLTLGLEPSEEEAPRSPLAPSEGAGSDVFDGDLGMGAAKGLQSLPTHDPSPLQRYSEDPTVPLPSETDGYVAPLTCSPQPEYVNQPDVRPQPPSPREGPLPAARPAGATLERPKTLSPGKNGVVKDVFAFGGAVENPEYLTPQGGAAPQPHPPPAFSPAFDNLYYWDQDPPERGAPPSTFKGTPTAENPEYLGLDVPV

| EC50 (BT-474) [nM] | IC50 [3] [nM] | IC50 [4] [nM] | Compound | IC50 [1] [nM] | EC50 (HFF) [nM] | EC50 (HN5) [nM] | IC50 [2] [nM] |
| --- | --- | --- | --- | --- | --- | --- | --- |
| 140 |  |  | O=C(O[C@@H]1CN[C@H](C#Cc2cc3ncnc(Nc4ccc(OCc5cccc(F)c5)c(Cl)c4)c3s2)C1)N1CCOCC1 |  |  |  |  |
| 50 |  |  | O=C(O[C@@H]1CN[C@@H](C#Cc2cc3ncnc(Nc4ccc(OCc5cccc(F)c5)c(Cl)c4)c3s2)C1)N1CCOCC1 |  |  |  |  |
| 120 |  |  | O=C(O[C@H]1CN[C@@H](C#Cc2cc3ncnc(Nc4ccc(OCc5cccc(F)c5)c(Cl)c4)c3s2)C1)N1CCOCC1 |  |  |  |  |
| 60 |  | 50 | CCNC(=O)O[C@@H]1CN[C@@H](C#Cc2cc3ncnc(Nc4ccc(OCc5cccc(F)c5)c(Cl)c4)c3s2)C1 |  |  |  |  |
| 20 |  | 32 | CCNC(=O)O[C@H]1CN[C@@H](C#Cc2cc3ncnc(Nc4ccc(OCc5cccc(F)c5)c(Cl)c4)c3s2)C1 |  |  |  |  |
| 10 |  |  | CN(C)C(=O)O[C@H]1CN[C@@H](C#Cc2cc3ncnc(Nc4ccc(OCc5cccc(F)c5)c(Cl)c4)c3s2)C1 |  |  |  |  |
| 30 |  |  | CNC(=O)O[C@H]1CN[C@H](C#Cc2cc3ncnc(Nc4ccc(OCc5cccc(F)c5)c(Cl)c4)c3s2)C1 |  | 5000 | 60 |  |
| 130 |  |  | CCNC(=O)O[C@@H]1CN[C@H](C#Cc2cc3ncnc(Nc4ccc(OCc5cccc(F)c5)c(Cl)c4)c3s2)C1 |  |  |  |  |
| 230 |  |  | CN(C)C(=O)O[C@@H]1CN[C@H](C#Cc2cc3ncnc(Nc4ccc(OCc5cccc(F)c5)c(Cl)c4)c3s2)C1 |  |  |  |  |
| 100 | 20 | 63 | O=C(O[C@H]1CN[C@H](C#Cc2cc3ncnc(Nc4ccc(OCc5cccc(F)c5)c(Cl)c4)c3s2)C1)N1CCNCC1 |  | 5100 | 400 |  |
| 290 | 32 | 40 | CS(=O)(=O)CCNC(=O)O[C@H]1CN[C@H](C#Cc2cc3ncnc(Nc4ccc(OCc5cccc(F)c5)c(Cl)c4)c3s2)C1 |  | 8200 | 30 |  |
| 80 |  |  | CCN(CC)C(=O)O[C@H]1CN[C@H](C#Cc2cc3ncnc(Nc4ccc(OCc5cccc(F)c5)c(Cl)c4)c3s2)C1 | 63 | 4300 | 250 | 50 |
| 90 | 32 | 50 | CCN(C)C(=O)O[C@H]1CN[C@H](C#Cc2cc3ncnc(Nc4ccc(OCc5cccc(F)c5)c(Cl)c4)c3s2)C1 |  | 3000 | 240 |  |
| 10 |  |  | C=CC(=O)Nc1cc2c(Nc3ccc(F)c(Cl)c3)ncnc2cc1OCCCN1CCOCC1 [CANERTINIB] |  |  | 50 |  |
| 30 |  |  | CN(C)C(=O)O[C@H]1CN[C@H](C#Cc2cc3ncnc(Nc4ccc(OCc5cccc(F)c5)c(Cl)c4)c3s2)C1 [GSK-182497A] |  | 2800 |  |  |
| 30 |  |  | CCNC(=O)O[C@H]1CN[C@H](C#Cc2cc3ncnc(Nc4ccc(OCc5cccc(F)c5)c(Cl)c4)c3s2)C1 [GSK-192082A] |  | 4200 | 95 |  |
| 30 |  |  | CN(C)C(=O)O[C@@H]1CN[C@@H](C#Cc2cc3ncnc(Nc4ccc(OCc5cccc(F)c5)c(Cl)c4)c3s2)C1 [GSK-238063A] |  |  |  |  |
| 30 |  |  | O=C(O[C@H]1CN[C@H](C#Cc2cc3ncnc(Nc4ccc(OCc5cccc(F)c5)c(Cl)c4)c3s2)C1)N1CCOCC1 [GW869810X] |  | 4900 |  |  |
| 20 |  |  | CS(=O)(=O)CCNCc1ccc(-c2ccc3ncnc(Nc4ccc(OCc5cccc(F)c5)c(Cl)c4)c3c2)o1 [LAPATINIB DITOSYLATE] |  |  |  |  |

| Compound | EC50 (BT-474) [nM] | IC50 [3] [nM] | IC50 [4] [nM] | IC50 [1] [nM] | EC50 (HFF) [nM] | EC50 (HN5) [nM] | IC50 [2] [nM] |
| --- | --- | --- | --- | --- | --- | --- | --- |
| O=C(O[C@H]1CN[C@H](C#Cc2cc3ncnc(Nc4ccc(OCc5cccc(F)c5)c(Cl)c4)c3s2)C1)N1CCCC1 | 60 |  |  | 99 | 3500 | 120 | 32 |
| NC(=O)O[C@H]1CN[C@H](C#Cc2cc3ncnc(Nc4ccc(OCc5cccc(F)c5)c(Cl)c4)c3s2)C1 | 25 | 16 | 40 |  | 5500 | 100 |  |
